Experimental data reported in paper PMC9090415, “Discovery of small molecule inhibitors of Plasmodium falciparum apicoplast DNA polymerase” (Journal of Enzyme Inhibition and Medicinal Chemistry, 2022).

Target: P. falciparum apicoplast DNA polymerase (Pf-apPOL) (Plasmodium falciparum, UniProt Q8ILY1)
Test: Fluorescence-based high-throughput DNA polymerase assay (molecular beacon), primary screen and dose-response
Assay type: biochemical
Procedure: The HT assay employs a molecular beacon, a stem-loop DNA template with a Cy3 dye and the Black Hole Quencher on the 3′ and 5′ ends of the DNA, respectively. Pf-apPOL concentration is based on a calculated absorptivity of ε280 = 56750 M^−1 cm^−1. Reactions were carried out at 25 °C, using Corning 3575 […] (well-volume, 20 µL). Assays testing for compound inhibition composed of reaction buffer (pH 7.9 in 50 mM potassium acetate, 20 mM Tris-acetate and 10 mM magnesium acetate), Pf-apPOL (20 nM), DNA substrate (20 nM), dNTPs (6 µM), and compound (10 µM in DMSO). The DNA and nucleotide substrates (dNTPs) were at concentrations of 20 nM and 6 µM, respectively, in the assay. Pf-apPOL was incubated in the reaction buffer with dNTPs and the compound of interest (10 µM, in the assay) at 25 °C for 10 min. The DNA substrate was then added and the reaction was allowed to proceed for 90 min at 25 °C.
Each assay plate contained 16 negative controls (no Pf-apPOL, DMSO present) and 16 positive controls (Pf-apPOL present, no DMSO). The fluorescence of each well was determined using a BioTek Synergy Neo fluorescence plate reader using excitation and emission wavelengths of 555 and 570 nm, respectively.
In the above, Min is the average of fluorescence emission of the negative controls (substrate only), Max the average fluorescence emission from the positive controls (enzyme + substrate), and Test the emission from the assays in the presence of compounds (enzyme + compound + substrates). […] […] The IC50 of each compound was determined using Equation (2): (2) IC50= Vmax/(1+ (I/IC50)^n)
In the above, n measures cooperativity, with n > 1 indicating synergistic binding of more than a single molecule of the compound.
To identify apPOL inhibitors we utilised our previously developed high-throughput DNA polymerase assay. The HT assay is based on a molecular beacon DNA template that forms a stem-loop with a Cy3 dye and the Black Hole Quencher on the 3′ and 5′ ends of the DNA, respectively. DNA polymerase activity extends an annealed primer through the stem region, displacing the fluorophore from the quencher, thereby increasing its fluorescence (Figure 1(A)). The assay accurately recapitulates the kinetic behaviour of apPOL, as measured through more conventional low-throughput gel-based assays. The Z′ factor for the assay described here was 0.9 across all plates (data not shown).
Figure 1. High-throughput screening. (A) The fluorescent-based DNA polymerase assay used to screen the compound libraries. The DNA template strand is a hairpin loop with a primer annealed to the loop. The 3’ end of the primer is 11 bases away from the 6 bp duplex. Strand displacement activity of the DNA polymerase separates the Cy3 dye from the Black hole quencher leading to an increase in fluorescent signal. (B) The high-throughput assay workflow. The DNA polymerase is incubated with […] compound for 10 min prior to addition of the hairpin substrate. The reaction is quenched at 3 different time points and the fluorescent signal is measured and % inhibition is determined using the provided equation.

Sequence of P. falciparum apicoplast DNA polymerase (Pf-apPOL) (Q8ILY1 entry or part of it): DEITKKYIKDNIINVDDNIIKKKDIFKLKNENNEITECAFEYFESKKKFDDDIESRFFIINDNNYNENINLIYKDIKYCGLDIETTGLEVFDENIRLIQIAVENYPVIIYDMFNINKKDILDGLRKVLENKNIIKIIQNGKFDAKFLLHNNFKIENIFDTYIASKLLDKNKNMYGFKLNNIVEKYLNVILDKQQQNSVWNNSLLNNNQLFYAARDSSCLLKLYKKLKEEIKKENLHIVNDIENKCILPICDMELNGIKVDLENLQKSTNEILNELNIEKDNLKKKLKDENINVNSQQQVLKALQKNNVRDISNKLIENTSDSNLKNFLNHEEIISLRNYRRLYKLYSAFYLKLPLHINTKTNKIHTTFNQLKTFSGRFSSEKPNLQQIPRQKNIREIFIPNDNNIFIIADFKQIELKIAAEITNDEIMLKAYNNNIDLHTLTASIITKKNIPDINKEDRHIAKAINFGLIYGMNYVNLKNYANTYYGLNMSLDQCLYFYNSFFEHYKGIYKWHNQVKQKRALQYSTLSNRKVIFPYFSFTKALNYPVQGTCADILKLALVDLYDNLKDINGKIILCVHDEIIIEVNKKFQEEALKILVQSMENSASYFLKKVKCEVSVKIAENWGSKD

COc1cc(NC(=O)c2ccccc2)c(OC)cc1NC(=O)Cc1cccs1 [KU0032113]
% inhibition Apo pol 10' (DRC-1; 10'; concentration 2.5): 6.129%
% inhibition Apo pol 10' (DRC-1; 10'; concentration 5): 17.2801%
% inhibition Apo pol 10' (DRC-1; 10'; concentration 10): 38.185%
% inhibition Apo pol 10' (DRC-1; 10'; concentration 20): 61.3818%
% inhibition Apo pol 10' (DRC-1; 10'; concentration 40): 79.6269%
% inhibition Apo pol 10' (DRC-1; 10'; concentration 80): 80.874%
% inhibition Apol 90' (DRC-1; 90'; concentration 2.5): 2.9%
% inhibition Apol 90' (DRC-1; 90'; concentration 5): 9.442%
% inhibition Apol 90' (DRC-1; 90'; concentration 10): 29.583%
% inhibition Apol 90' (DRC-1; 90'; concentration 20): 53.4832%
% inhibition Apol 90' (DRC-1; 90'; concentration 40): 79.1036%
% inhibition Apol 90' (DRC-1; 90'; concentration 80): 83.2869%
% inhibition apPOL 180' (DRC-1; 180'; concentration 2.5): 0.5437%
% inhibition apPOL 180' (DRC-1; 180'; concentration 5): 4.503%
% inhibition apPOL 180' (DRC-1; 180'; concentration 10): 19.4766%
% inhibition apPOL 180' (DRC-1; 180'; concentration 20): 39.9313%
% inhibition apPOL 180' (DRC-1; 180'; concentration 40): 73.4883%
% inhibition apPOL 180' (DRC-1; 180'; concentration 80): 81.431%
% inhibition Apo pol 5' (DRC-2, 5', concentration 2.5 (unit not given)): 25%
% inhibition Apo pol 5' (DRC-2, 5', concentration 10 (unit not given)): 38%
% inhibition Apo pol 5' (DRC-2, 5', concentration 20 (unit not given)): 38%
% inhibition Apo pol 5' (DRC-2, 5', concentration 40 (unit not given)): 34%
% inhibition Apol 40' (DRC-2, 40', concentration 2.5 (unit not given)): 34%
% inhibition Apol 40' (DRC-2, 40', concentration 10 (unit not given)): 54%
% inhibition Apol 40' (DRC-2, 40', concentration 40 (unit not given)): 61%
% inhibition ApPOL 90' (DRC-2, 90', concentration 5 (unit not given)): 25%
% inhibition ApPOL 90' (DRC-2, 90', concentration 10 (unit not given)): 54%
% inhibition apPOL 180' (DRC-2, 180', concentration 20 (unit not given)): 61%
% inhibition Apo pol 5' (DRC-2; 5'; concentration 2.5): 25%
% inhibition Apo pol 5' (DRC-2; 5'; concentration 5): 21%
% inhibition Apo pol 5' (DRC-2; 5'; concentration 10): 38%
% inhibition Apo pol 5' (DRC-2; 5'; concentration 20): 38%
% inhibition Apo pol 5' (DRC-2; 5'; concentration 40): 34%
% inhibition Apo pol 5' (DRC-2; 5'; concentration 80): -20%
% inhibition Apol 40' (DRC-2; 40'; concentration 2.5): 34%
% inhibition Apol 40' (DRC-2; 40'; concentration 5): 28%
% inhibition Apol 40' (DRC-2; 40'; concentration 10): 54%
% inhibition Apol 40' (DRC-2; 40'; concentration 20): 62%
% inhibition Apol 40' (DRC-2; 40'; concentration 40): 61%
% inhibition Apol 40' (DRC-2; 40'; concentration 80): 35%
% inhibition ApPOL 90' (DRC-2; 90'; concentration 2.5): 31%
% inhibition ApPOL 90' (DRC-2; 90'; concentration 5): 25%
% inhibition ApPOL 90' (DRC-2; 90'; concentration 10): 54%
% inhibition ApPOL 90' (DRC-2; 90'; concentration 20): 64%
% inhibition ApPOL 90' (DRC-2; 90'; concentration 40): 66%
% inhibition ApPOL 90' (DRC-2; 90'; concentration 80): 47%
% inhibition apPOL 180' (DRC-2; 180'; concentration 2.5): 22%
% inhibition apPOL 180' (DRC-2; 180'; concentration 5): 13%
% inhibition apPOL 180' (DRC-2; 180'; concentration 10): 44%
% inhibition apPOL 180' (DRC-2; 180'; concentration 20): 61%
% inhibition apPOL 180' (DRC-2; 180'; concentration 40): 67%
% inhibition apPOL 180' (DRC-2; 180'; concentration 80): 59%
DNA Pol (primary screen value of the 186 hits; unit not given): 42
DNA Pol (primary screen value, head "DNA Pol", unit not given): 42

O=[N+]([O-])c1ccc(SCc2ccco2)c2cccnc12 [KU0034480]
% inhibition Apo pol 10' (DRC-1; concentration 2.5; 10'): 15.1764%
% inhibition Apol 90' (DRC-1; concentration 2.5; 90'): 4.148%
% inhibition apPOL 180' (DRC-1; concentration 2.5; 180'): -3.317%
% inhibition Apo pol 10' (DRC-1; concentration 5; 10'): 32.9023%
% inhibition Apol 90' (DRC-1; concentration 5; 90'): 16.0357%
% inhibition apPOL 180' (DRC-1; concentration 5; 180'): 6.603%
% inhibition Apo pol 10' (DRC-1; concentration 10; 10'): 55.3292%
% inhibition Apol 90' (DRC-1; concentration 10; 90'): 36.0729%
% inhibition apPOL 180' (DRC-1; concentration 10; 180'): 23.8373%
% inhibition Apo pol 10' (DRC-1; concentration 20; 10'): 73.1419%
% inhibition Apol 90' (DRC-1; concentration 20; 90'): 49.2841%
% inhibition apPOL 180' (DRC-1; concentration 20; 180'): 26.1748%
% inhibition Apo pol 10' (DRC-1; concentration 40; 10'): 89.7276%
% inhibition Apol 90' (DRC-1; concentration 40; 90'): 77.8644%
% inhibition apPOL 180' (DRC-1; concentration 40; 180'): 65.2989%
% inhibition Apo pol 10' (DRC-1; concentration 80 (unit not given); 10'): 92.5619%
% inhibition Apol 90' (DRC-1; concentration 80; 90'): 91.6594%
% inhibition apPOL 180' (DRC-1; concentration 80; 180'): 89.7624%
% inhibition Apo pol 5' (DRC-2; 5'; concentration 2.5): 33%
% inhibition Apo pol 5' (DRC-2; 5'; concentration 5): 33%
% inhibition Apol 40' (DRC-2; 40'; concentration 5): 33%
% inhibition ApPOL 90' (DRC-2; 90'; concentration 40): 75%
% inhibition apPOL 180' (DRC-2; 180'; concentration 40): 75%
% inhibition apPOL 180' (DRC-2; 180'; concentration 80): 75%
% inhibition Apo pol 5' (DRC-2; concentration 2.5; 5'): 33%
% inhibition Apol 40' (DRC-2; concentration 2.5; 40'): 40%
% inhibition ApPOL 90' (DRC-2; concentration 2.5; 90'): 36%
% inhibition apPOL 180' (DRC-2; concentration 2.5; 180'): 26%
% inhibition Apo pol 5' (DRC-2; concentration 5; 5'): 33%
% inhibition Apol 40' (DRC-2; concentration 5; 40'): 33%
% inhibition ApPOL 90' (DRC-2; concentration 5; 90'): 29%
% inhibition apPOL 180' (DRC-2; concentration 5; 180'): 16%
% inhibition Apo pol 5' (DRC-2; concentration 10; 5'): 38%
% inhibition Apol 40' (DRC-2; concentration 10; 40'): 39%
% inhibition ApPOL 90' (DRC-2; concentration 10; 90'): 35%
% inhibition apPOL 180' (DRC-2; concentration 10; 180'): 22%
% inhibition Apo pol 5' (DRC-2; concentration 20; 5'): 47%
% inhibition Apol 40' (DRC-2; concentration 20; 40'): 63%
% inhibition ApPOL 90' (DRC-2; concentration 20; 90'): 62%
% inhibition apPOL 180' (DRC-2; concentration 20; 180'): 53%
% inhibition Apo pol 5' (DRC-2; concentration 40; 5'): 48%
% inhibition Apol 40' (DRC-2; concentration 40; 40'): 72%
% inhibition ApPOL 90' (DRC-2; concentration 40; 90'): 75%
% inhibition apPOL 180' (DRC-2; concentration 40; 180'): 75%
% inhibition Apo pol 5' (DRC-2; concentration 80; 5'): 13%
% inhibition Apol 40' (DRC-2; concentration 80; 40'): 57%
% inhibition ApPOL 90' (DRC-2; concentration 80; 90'): 66%
% inhibition apPOL 180' (DRC-2; concentration 80; 180'): 75%
DNA Pol (primary screen value of the 186 hits; unit not given; 90 min, 10 µM): 42
DNA Pol (primary screen value; head prints only 'DNA Pol'; 90 min, 10 µM): 42
